Values quoted from earlier work, collected in PMC3124134 (Bioorganic & medicinal chemistry, 2010).

Key:
[1] = target: Sc ODCase; settings: S. cerevisiae ODCase; in words
[2] = target: ODCase; settings: read-out: inhibition constant (Ki); competitive inhibition of ODCase

SMILES | inhibition constants [1] | Ki [2] [µM]
NC(=O)c1[nH]nc([C@@H]2O[C@H](COP(=O)(O)O)[C@@H](O)[C@H]2O)c1O [compound 8, 4-Hydroxy-5-(5-O-monophosphoryl-β-D-ribofuranos-1-yl)-1H-pyrazole-3-carboxamide] | low nanomolar range | 
COC(=O)C1=C(C)NC(C)=C(C(=O)OC)C1c1ccccc1[N+](=O)[O-] [nifedipine] |  | 105
